“And” between values parts separate entries of the source, which are not always exact repeats. Equal values may be shown once. Inconclusive results and toxic doses are left out. Cut-off read from the data, not from the text of the source: active = T/C of 150% or more; inactive = T/C below 125%. Square brackets hold non-standard residues; d marks the D form. Peptide text beside a SMILES is read from it. * marks the point of attachment. ξ: configuration not given here. Octanoyl = CCCCCCCC(=O)*; OBn = c1ccc(CO*)cc1; ξP = O=C(O)C1CCCN1
System: L1210 leukemia ip in BDF1 mice, survival T/C
Assay: NCI In Vivo Anticancer Drug Screen. Data for tumor model L1210 Leukemia (intraperitoneal) in B6D2F1 (BDF1) mice
Conditions: endpoint: mean survival time, higher = longer survival
How it was run: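 Read-out is survival time, reported as the treated-group measurement over the vehicle-control measurement.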

[1] = dose: 100.0 mg/kg/injection, schedule: Q01DX001 (ip), vehicle: Klucel (hydroxypropylcellulose) (HPC)
[2] = dose: 200.0 mg/kg/injection, schedule: Q01DX001 (ip), vehicle: Klucel (hydroxypropylcellulose) (HPC)
[3] = dose: 100.0 mg/kg/injection, schedule: Q04DX003 (ip), vehicle: Klucel (hydroxypropylcellulose) (HPC)
[4] = dose: 200.0 mg/kg/injection, schedule: Q04DX003 (ip), vehicle: Klucel (hydroxypropylcellulose) (HPC)
[5] = dose: 400.0 mg/kg/injection, schedule: Q04DX003 (ip), vehicle: Klucel (hydroxypropylcellulose) (HPC)
[6] = dose: 100.0 mg/kg/injection, schedule: Q04DX003 (ip), vehicle: saline with Tween-80
[7] = dose: 200.0 mg/kg/injection, schedule: Q04DX003 (ip), vehicle: saline with Tween-80
[8] = dose: 100.0 mg/kg/injection, schedule: Q04DX002 (ip), vehicle: Klucel (hydroxypropylcellulose) (HPC)
[9] = dose: 200.0 mg/kg/injection, schedule: Q04DX002 (ip), vehicle: Klucel (hydroxypropylcellulose) (HPC)

Measured: T/C

O=C(O)C(Cl)(c1ccccc1)c1ccccc1
inactive: dose: 75.0 mg/kg/injection, schedule: Q01DX001 (ip), vehicle: other 94 % of control | dose: 150.0 mg/kg/injection, schedule: Q01DX001 (ip), vehicle: other 101 % of control | dose: 300.0 mg/kg/injection, schedule: Q01DX001 (ip), vehicle: other 100 % of control

O=C(OCCn1c(-c2ccccn2)nc2ccccc21)C(O)(c1ccccc1)c1ccccc1
inactive: [1] 102 % of control | [2] 93 % of control

C[N+]1([O-])C2CCC1CC(OC(=O)C(O)c1ccccc1)C2 (stereo not given)
inactive: dose: 75.0 mg/kg/injection, schedule: Q01DX001 (ip), vehicle: saline 110 % of control | dose: 150.0 mg/kg/injection, schedule: Q01DX001 (ip), vehicle: saline 100 % of control | dose: 300.0 mg/kg/injection, schedule: Q01DX001 (ip), vehicle: saline 95 % of control

Cc1ccc([N+](=O)[O-])cc1NC(=O)SCc1ccccc1
inactive: [3] 93 % of control | [4] 102 % of control | [5] 105 % of control

O=N[O-].O=N[O-].O=N[O-].O=N[O-].[Co+2].[NH2-].[NH2-]
inactive: [6] 115 % of control | [7] 118 % of control

O=C(O)CCc1nc2ccccc2[nH]1
inactive: dose: 75.0 mg/kg/injection, schedule: Q01DX009 (ip), vehicle: Klucel (hydroxypropylcellulose) (HPC) 107 % of control | dose: 150.0 mg/kg/injection, schedule: Q01DX009 (ip), vehicle: Klucel (hydroxypropylcellulose) (HPC) 100 % of control | dose: 300.0 mg/kg/injection, schedule: Q01DX009 (ip), vehicle: Klucel (hydroxypropylcellulose) (HPC) 104 % of control

CC1CCN(C(=O)Nc2ccc(Cl)cc2[N+](=O)[O-])CC1
inactive: dose: 100.0 mg/kg/injection, schedule: Q01DX009 (ip), vehicle: Klucel (hydroxypropylcellulose) (HPC) 92 % of control | dose: 200.0 mg/kg/injection, schedule: Q01DX009 (ip), vehicle: Klucel (hydroxypropylcellulose) (HPC) 97 % of control | dose: 400.0 mg/kg/injection, schedule: Q01DX009 (ip), vehicle: Klucel (hydroxypropylcellulose) (HPC) 91 % of control

Cc1ccc(-n2nnnc2N)c(C)c1
inactive: dose: 100.0 mg/kg/injection, schedule: Q04DX003 (ip), vehicle: saline 94 % of control | dose: 200.0 mg/kg/injection, schedule: Q04DX003 (ip), vehicle: saline 91 % of control | dose: 400.0 mg/kg/injection, schedule: Q04DX003 (ip), vehicle: saline 94 % of control

CC(=O)OC1CC2(CO2)C2CC=C(C)C2C2OC(=O)C(C)C12 (stereo not given)
inactive: dose: 12.5 mg/kg/injection, schedule: Q04DX002 (ip), vehicle: saline 110 % of control | dose: 25.0 mg/kg/injection, schedule: Q04DX002 (ip), vehicle: saline 100 % of control | dose: 50.0 mg/kg/injection, schedule: Q04DX002 (ip), vehicle: saline 95 % of control | [8] 90 % of control | [9] 100 % of control

S=C1NC2CCCc3ccccc3C2O1 (stereo not given)
inactive: [3] 111 % of control | [4] 113 % of control | [5] 107 % of control

O=C1C=CC(=Nc2ccc(O)c3ncccc23)c2cccnc21
inactive: dose: 100.0 mg/kg/injection, schedule: Q01DX001 (ip), vehicle: other 104 % of control and 114 % of control | dose: 200.0 mg/kg/injection, schedule: Q01DX001 (ip), vehicle: other 106 % of control and 108 % of control | dose: 400.0 mg/kg/injection, schedule: Q01DX001 (ip), vehicle: other 102 % of control

COc1ccccc1C(O)(c1ccccc1)c1ccccc1OC
inactive: [3] 92 % of control | [4] 98 % of control | [5] 97 % of control

O=S(=O)(O)c1cc(Cl)cc(N=Nc2ccc(O)cc2O)c1O
inactive: dose: 50.0 mg/kg/injection, schedule: Q01DX001 (ip), vehicle: saline 98 % of control | dose: 100.0 mg/kg/injection, schedule: Q01DX001 (ip), vehicle: saline 98 % of control | dose: 200.0 mg/kg/injection, schedule: Q01DX001 (ip), vehicle: saline 104 % of control | dose: 400.0 mg/kg/injection, schedule: Q01DX001 (ip), vehicle: saline 98 % of control

CN(C)C(=Nc1ccc(NC(=O)c2ccc(C(=O)Nc3ccc(N=C(Nc4ccccc4)N(C)C)cc3)cc2)cc1)Nc1ccccc1
inactive: dose: 1.5 mg/kg/injection, schedule: Q01DX Z (ip), vehicle: carboxymethylcellulose (CMC) 95 % of control | dose: 3.0 mg/kg/injection, schedule: Q01DX Z (ip), vehicle: carboxymethylcellulose (CMC) 97 % of control | dose: 6.0 mg/kg/injection, schedule: Q01DX Z (ip), vehicle: carboxymethylcellulose (CMC) 107 % of control | dose: 12.0 mg/kg/injection, schedule: Q01DX Z (ip), vehicle: carboxymethylcellulose (CMC) 89 % of control

CCCCCCCC(=O)N1CCCC1C(=O)NCC(=O)NCC(=O)OCc1ccccc1 (stereo not drawn) (Octanoyl-[ξP]-Gly-Gly-OBn)
inactive: [8] 94 % of control | [9] 86 % of control | dose: 400.0 mg/kg/injection, schedule: Q04DX002 (ip), vehicle: Klucel (hydroxypropylcellulose) (HPC) 105 % of control

Nc1ccc(S(=O)(=O)CC(=O)N2CCOCC2)cc1
inactive: [6] 100 % of control | [7] 97 % of control | dose: 400.0 mg/kg/injection, schedule: Q04DX003 (ip), vehicle: saline with Tween-80 97 % of control

O=[N+]([O-])c1cc([N+](=O)[O-])c(NN(c2ccccc2)c2ccccc2)c([N+](=O)[O-])c1
inactive: dose: 12.5 mg/kg/injection, schedule: Q01DX Z (ip), vehicle: other 106 % of control | dose: 25.0 mg/kg/injection, schedule: Q01DX Z (ip), vehicle: other 102 % of control | [3] 92 % of control | [4] 88 % of control | [5] 91 % of control

c1ccc(-c2ccccc2NC2=NCCO2)cc1
inactive: dose: 12.5 mg/kg/injection, schedule: Q01DX009 (ip), vehicle: saline with Tween-80 100 % of control | dose: 25.0 mg/kg/injection, schedule: Q01DX009 (ip), vehicle: saline with Tween-80 94 % of control | dose: 50.0 mg/kg/injection, schedule: Q01DX009 (ip), vehicle: saline with Tween-80 94 % of control

CC(=O)Oc1ccccc1C1SCSCS1
inactive: [1] 100 % of control | [2] 100 % of control | dose: 400.0 mg/kg/injection, schedule: Q01DX001 (ip), vehicle: Klucel (hydroxypropylcellulose) (HPC) 94 % of control

CCCCn1cnc2c(=O)[nH]cnc21
inactive: dose: 66.12 mg/kg/injection, schedule: Q01DX Z (ip), vehicle: carboxymethylcellulose (CMC) 93 % of control | dose: 132.25 mg/kg/injection, schedule: Q01DX Z (ip), vehicle: carboxymethylcellulose (CMC) 94 % of control | dose: 132.25 mg/kg/injection, schedule: Q01DX Z (oral), vehicle: carboxymethylcellulose (CMC) 100 % of control | dose: 264.5 mg/kg/injection, schedule: Q01DX Z (ip), vehicle: carboxymethylcellulose (CMC) 90 % of control | dose: 264.5 mg/kg/injection, schedule: Q01DX Z (oral), vehicle: carboxymethylcellulose (CMC) 96 % of control | dose: 529.0 mg/kg/injection, schedule: Q01DX Z (oral), vehicle: carboxymethylcellulose (CMC) 94 % of control

CCC(=O)c1ccccc1N
inactive: dose: 100.0 mg/kg/injection, schedule: Q01DX009 (ip), vehicle: saline with Tween-80 97 % of control | dose: 200.0 mg/kg/injection, schedule: Q01DX009 (ip), vehicle: saline with Tween-80 105 % of control | dose: 400.0 mg/kg/injection, schedule: Q01DX009 (ip), vehicle: saline with Tween-80 92 % of control

— PubChem BioAssay AID248 (DTP/NCI, 2004)
